Values of other authors in patent publication US6531488B1, “Method of treating neurodegenerative diseases” (Merck & Co., Inc., priority 1998, dated 2003).
Where a name gives a salt, the structure may show the parent alone.

Test system: patients with Alzheimer's disease
Conditions: ARICEPT administered alone; patients diagnosed by NINCDS and DMS III-R criteria; assessed with ADAS-cog and CIBIC

## COc1cc2c(cc1OC)C(=O)C(CC1CCN(Cc3ccccc3)CC1)C2 (racemic) [ARICEPT, (±)-2,3-dihydro-5,6-diomethoxy-2-[[1-(phenylmethyl)-4-piperidinyl]methyl]-1H-indene-1-one hydrochloride]
  effectiveness for the treatment of the symptoms of Alzheimer's disease: effective
